This is an account of results in PubChem BioAssay AID248 (DTP/NCI, 2004).

This assay has as its system L1210 leukemia ip in BDF1 mice, survival T/C. The assay can be described thus: NCI In Vivo Anticancer Drug Screen. Data for tumor model L1210 Leukemia (intraperitoneal) in B6D2F1 (BDF1) mice. The following applies: endpoint: mean survival time, higher = longer survival. In a few lines: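 Tumor was transplanted into mice, which were then dosed with test compound or vehicle alone. Survival was recorded for each group, and the treated figure was expressed relative to the control figure.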

Where [1] appears, read: dose: 100.0 mg/kg/injection, schedule: Q04DX003 (ip), vehicle: saline with Tween-80.
The mark [2] stands for this setting: dose: 200.0 mg/kg/injection, schedule: Q04DX003 (ip), vehicle: saline with Tween-80.
Where [3] appears, read: dose: 400.0 mg/kg/injection, schedule: Q04DX003 (ip), vehicle: saline with Tween-80.
Where [4] appears, read: dose: 100.0 mg/kg/injection, schedule: Q01DX009 (ip), vehicle: saline with Tween-80.
[5] abbreviates: dose: 200.0 mg/kg/injection, schedule: Q01DX009 (ip), vehicle: saline with Tween-80.
Where [6] appears, read: dose: 100.0 mg/kg/injection, schedule: Q01DX001 (ip), vehicle: other.
Setting [7] is: dose: 200.0 mg/kg/injection, schedule: Q01DX001 (ip), vehicle: other.
Setting [8] is: dose: 400.0 mg/kg/injection, schedule: Q01DX001 (ip), vehicle: other.
[9] abbreviates: dose: 100.0 mg/kg/injection, schedule: Q04DX003 (ip), vehicle: saline.

Where “and” joins values, the source holds several entries; their conditions need not be identical. Equal entries are not always repeated. Inconclusive results and toxic doses are left out.

For `ClCC[N-]CC[N-]CCCl.ClCC[N-]CC[N-]CCCl.[O-][Cl+3]([O-])([O-])O.[Zn+2]`, the T/C reads like this: (dose: 5.0 mg/kg/injection, schedule: Q01DX009 (ip), vehicle: Klucel (hydroxypropylcellulose) (HPC)) 102 % of control; (dose: 5.0 mg/kg/injection, schedule: Q03DX003 (ip), vehicle: saline) 95 % of control; (dose: 5.0 mg/kg/injection, schedule: Q## X003 (ip), vehicle: saline) 95 % of control; (dose: 9.0 mg/kg/injection, schedule: Q01DX009 (ip), vehicle: Klucel (hydroxypropylcellulose) (HPC)) 94 % of control; (dose: 10.0 mg/kg/injection, schedule: Q01DX009 (ip), vehicle: Klucel (hydroxypropylcellulose) (HPC)) 97 % of control; (dose: 10.0 mg/kg/injection, schedule: Q03DX003 (ip), vehicle: saline) 104 % of control. The T/C was 104 % of control (dose: 10.0 mg/kg/injection, schedule: Q## X003 (ip), vehicle: saline); 100 % of control (dose: 18.0 mg/kg/injection, schedule: Q01DX009 (ip), vehicle: Klucel (hydroxypropylcellulose) (HPC)); 116 % of control (dose: 20.0 mg/kg/injection, schedule: Q01DX009 (ip), vehicle: Klucel (hydroxypropylcellulose) (HPC)); 121 % of control (dose: 20.0 mg/kg/injection, schedule: Q03DX003 (ip), vehicle: saline); 121 % of control (dose: 20.0 mg/kg/injection, schedule: Q## X003 (ip), vehicle: saline); 161 % of control (dose: 40.0 mg/kg/injection, schedule: Q03DX003 (ip), vehicle: saline). Besides, the T/C is, setting by setting: (dose: 40.0 mg/kg/injection, schedule: Q## X003 (ip), vehicle: saline) 161 % of control; (dose: 80.0 mg/kg/injection, schedule: Q03DX003 (ip), vehicle: saline) 80 % of control.
Consider `COc1cc2c(cc1OC)C(NC(C)C)CCCC2` (centres undefined), for which the T/C by setting is: (dose: 100.0 mg/kg/injection, schedule: Q01DX001 (ip), vehicle: saline) 98 % of control; (dose: 200.0 mg/kg/injection, schedule: Q01DX001 (ip), vehicle: saline) 95 % of control.
On to `c1ccc(C(c2ccccc2)[Si](c2ccccc2)(c2ccccc2)c2ccccc2)cc1`, for which the T/C is, setting by setting: (dose: 100.0 mg/kg/injection, schedule: Q04DX002 (ip), vehicle: saline with Tween-80) 90 % of control; (dose: 200.0 mg/kg/injection, schedule: Q04DX002 (ip), vehicle: saline with Tween-80) 97 % of control.
Take `O=C(O)/C=C\C(=O)Nc1ccc(F)cc1`: the T/C under setting [1] was 98 % of control, the T/C under setting [2] is 101 % of control and the T/C under setting [3] was 101 % of control.
Regarding `C=C(Br)CNC(=O)NCCN1CCOCC1`, the T/C is 97 % of control under setting [1], 111 % of control under setting [2] and 97 % of control under setting [3].
Regarding `CC(CCC(C)C(=O)O)C(=O)O` (centres undefined), the T/C is 103 % of control under setting [4]; 102 % of control under setting [5]; 103 % of control (dose: 400.0 mg/kg/injection, schedule: Q01DX009 (ip), vehicle: saline with Tween-80).
Turning to `CCCNC(=O)Oc1ccc2ccccc2c1`, the T/C is 103 % of control under setting [6]; 93 % of control and 100 % of control (dose: 100.0 mg/kg/injection, schedule: Q01DX009 (ip), vehicle: other); 95 % of control (dose: 100.0 mg/kg/injection, schedule: Q04DX002 (ip), vehicle: Klucel (hydroxypropylcellulose) (HPC)); 100 % of control and 101 % of control (dose: 100.0 mg/kg/injection, schedule: Q04DX002 (ip), vehicle: other); 94 % of control under setting [7]; 94 % of control and 116 % of control (dose: 200.0 mg/kg/injection, schedule: Q01DX009 (ip), vehicle: other). Moreover, the T/C is, setting by setting: (dose: 200.0 mg/kg/injection, schedule: Q04DX002 (ip), vehicle: Klucel (hydroxypropylcellulose) (HPC)) 103 % of control; (dose: 200.0 mg/kg/injection, schedule: Q04DX002 (ip), vehicle: other) 93 % of control and 95 % of control; under setting [8], 101 % of control; (dose: 400.0 mg/kg/injection, schedule: Q01DX009 (ip), vehicle: other) 93 % of control and 94 % of control; (dose: 400.0 mg/kg/injection, schedule: Q04DX002 (ip), vehicle: Klucel (hydroxypropylcellulose) (HPC)) 100 % of control; (dose: 400.0 mg/kg/injection, schedule: Q04DX002 (ip), vehicle: other) 93 % of control and 96 % of control.
As for `CCOC(=O)c1cnc(SC)nc1Nc1cccc(OC)c1`, the T/C reads like this: (dose: 100.0 mg/kg/injection, schedule: Q04DX003 (ip), vehicle: Klucel (hydroxypropylcellulose) (HPC)) 108 % of control; (dose: 200.0 mg/kg/injection, schedule: Q04DX003 (ip), vehicle: Klucel (hydroxypropylcellulose) (HPC)) 110 % of control; (dose: 400.0 mg/kg/injection, schedule: Q04DX003 (ip), vehicle: Klucel (hydroxypropylcellulose) (HPC)) 101 % of control.
For the compound `CN(C)c1ccc(N=Nc2ccc(Cl)c(Cl)c2)cc1`, the T/C (dose: 50.0 mg/kg/injection, schedule: Q01DX009 (ip), vehicle: saline with Tween-80) is 98 % of control; the T/C under setting [4] is 95 % of control; the T/C under setting [5] was 87 % of control.
`CC1OC(O[C@H]2C[C@](O)(C(C)O)Cc3c(O)c4c(c(O)c32)C(=O)c2c(O)cccc2C4=O)CC(NC=O)C1O` (some centres undefined): the T/C reads like this: (dose: 0.05 mg/kg/injection, schedule: Q01DX009 (ip), vehicle: saline) 116 % of control; (dose: 0.1 mg/kg/injection, schedule: Q01DX001 (ip), vehicle: saline) 105 % of control; (dose: 0.1 mg/kg/injection, schedule: Q03DX003 (ip), vehicle: saline) 112 % of control; (dose: 0.2 mg/kg/injection, schedule: Q01DX001 (ip), vehicle: saline) 116 % of control; (dose: 0.2 mg/kg/injection, schedule: Q03DX003 (ip), vehicle: saline) 119 % of control; (dose: 0.8 mg/kg/injection, schedule: Q01DX009 (ip), vehicle: saline) 119 % of control.
Turning to `O=[N+]([O-])c1ccc(C(SCc2ccccc2)SCc2ccccc2)cc1`, the T/C was 97 % of control (dose: 75.0 mg/kg/injection, schedule: Q01DX001 (ip), vehicle: carboxymethylcellulose (CMC)); 100 % of control (dose: 150.0 mg/kg/injection, schedule: Q01DX001 (ip), vehicle: carboxymethylcellulose (CMC)); 97 % of control (dose: 300.0 mg/kg/injection, schedule: Q01DX001 (ip), vehicle: carboxymethylcellulose (CMC)).
As to `O=C1C=C(c2ccccc2)C(c2ccccc2)=C1`, the T/C is 101 % of control (dose: 50.0 mg/kg/injection, schedule: Q01DX001 (ip), vehicle: carboxymethylcellulose (CMC)); 95 % of control (dose: 100.0 mg/kg/injection, schedule: Q01DX001 (ip), vehicle: carboxymethylcellulose (CMC)); 92 % of control (dose: 200.0 mg/kg/injection, schedule: Q01DX001 (ip), vehicle: carboxymethylcellulose (CMC)); 103 % of control (dose: 400.0 mg/kg/injection, schedule: Q01DX001 (ip), vehicle: carboxymethylcellulose (CMC)).
`CCOC(=O)C(=CN1CCCCC1)C(=O)OCC`: the T/C reads like this: under setting [9], 98 % of control; (dose: 200.0 mg/kg/injection, schedule: Q04DX003 (ip), vehicle: saline) 101 % of control; (dose: 400.0 mg/kg/injection, schedule: Q04DX003 (ip), vehicle: saline) 95 % of control.
`CC(=O)Oc1ccc2ccccc2c1/C=C/c1ccncc1`: the T/C is, setting by setting: (dose: 6.25 mg/kg/injection, schedule: Q01DX009 (ip), vehicle: saline) 104 % of control; (dose: 12.5 mg/kg/injection, schedule: Q01DX009 (ip), vehicle: saline) 102 % of control; (dose: 25.0 mg/kg/injection, schedule: Q01DX009 (ip), vehicle: saline) 96 % of control and 105 % of control; (dose: 25.0 mg/kg/injection, schedule: Q04DX003 (ip), vehicle: saline) 115 % of control; (dose: 50.0 mg/kg/injection, schedule: Q01DX009 (ip), vehicle: saline) 95 % of control; (dose: 50.0 mg/kg/injection, schedule: Q04DX003 (ip), vehicle: saline) 93 % of control. Further, the T/C under setting [9] is 94 % of control and 90 % of control.
As for `Cc1cc[n+]([O-])nc1N(C)N`, the T/C by setting is: (dose: 50.0 mg/kg/injection, schedule: Q04DX002 (ip), vehicle: saline) 101 % of control; (dose: 100.0 mg/kg/injection, schedule: Q04DX002 (ip), vehicle: saline) 104 % of control; (dose: 200.0 mg/kg/injection, schedule: Q04DX002 (ip), vehicle: saline) 96 % of control.
Take `O=C(OCCCCCCCOC(=O)c1ccc([N+](=O)[O-])cc1)c1ccc([N+](=O)[O-])cc1`: the T/C by setting is: under setting [6], 101 % of control; under setting [7], 96 % of control; under setting [8], 95 % of control.
